In article PMC7160362, “A Polyamine-Based Dinitro-Naphthalimide Conjugate as Substrates for Polyamine Transporters Preferentially Accumulates in Cancer Cells and Minimizes Side Effects in vitro and in vivo” (Frontiers in Chemistry, 2020):
Where two headings read alike, the source gives them in different places.

Assays:
[1] = system: Snu-739 cells (hepatic carcinoma); test: MTT cytotoxicity assay; assay type: cell-based; settings: MTT, 48 h
Procedure: (§1) We incubated hepatic carcinoma (Snu-368 and Snu-739), breast carcinoma (MDA-MB-231 and MCF-7), cisplatin-sensitive lung cancer cells A549, and cisplatin-resistant lung cancer cells A549cisR in 96-well plates in a 5% CO2 atmosphere at 37°C for 24 h (5,000 cells/well). After adding drugs in freshly prepared culture medium (100 μl) and incubating for another 48 h, we added 20 μl MTT (5 mg/ml) and incubated for another 3 h. At last, after the medium was removed, 150 μl DMSO was added. By using a Bio-Rad 680 microplate reader, the absorbance was measured at 570 nm and the IC50 values were calculated using the GraphPad Prism software based on three parallel experiments.
(§2) In vitro assays were firstly conducted to evaluate the inhibitory effect of polyamine-based naphthalimide conjugates 5a-5c, 7a-7b, and 11a-11b on six cancer cell lines, namely, Snu-368 and Sun-739 (hepatoma cell line), MCF-7 (breast carcinoma), MDA-MB-231 (triple negative breast cancer), cisplatin-sensitive lung cancer A549, and resistant A549cisR cells by using traditional MTT tests. Two classic antitumor agents in clinic trials, amonafide and cisplatin, were chosen as the reference drugs (Table 1). The preliminary structure–activity relationship (SAR) can be obtained from the in vitro biological results.

[2] = system: MDA-MB-231 cells (triple negative breast cancer); test: MTT cytotoxicity assay; assay type: cell-based; settings: MTT, 48 h
Procedure: as §1, §2

[3] = system: MCF-7 cells (breast carcinoma); test: MTT cytotoxicity assay; assay type: cell-based; settings: MTT, 48 h
Procedure: as §1, §2

[4] = system: cisplatin-sensitive lung cancer cells A549; test: MTT cytotoxicity assay; assay type: cell-based; settings: MTT, 48 h
Procedure: as §1, §2

[5] = system: Snu-368 cells (hepatic carcinoma); test: MTT cytotoxicity assay; assay type: cell-based; settings: MTT, 48 h
Procedure: as §1, §2

[6] = system: cisplatin-resistant lung cancer cells A549cisR; test: MTT cytotoxicity assay; assay type: cell-based; settings: for IC50: MTT, 48 h; for RF (resistance factor): IC50 in A549cisR cells/IC50 in A549 cells
Procedure: as §1, §2

[7] = system: HL-7702 (normal liver cell); test: MTT cytotoxicity on matched normal cells; assay type: cell-based; settings: for SI (selectivity index), range over Snu-368 and Snu-739: HL-7702 versus Snu-368 and Snu-739; for IC50: normal liver cell, read-out: IC50 HL-7702
Procedure: as §1
The selectivity for cancer cells over normal healthy cells is important for ideal anticancer agents, thereby mitigating undesired toxic side effects associated with chemotherapy. The selectivity of polyamine-based dinitro-naphthalimide conjugates 5a-5c was evaluated by Snu-368 and Snu-739 (hepatic carcinoma), and the matched normal cells HL-7702 (normal liver cell). Moreover, dinitro-naphthalimide conjugates 5a-5c (SI 1.94–7.47) show lower cytotoxicity in normal cells.

HCC xenografts = test: In vivo antitumor assay, HCC xenografts; settings: 5 mg/kg, tail vein, once every day for 7 days
Description: Healthy BALB/c mice (Cat. SCXK 2016-0006, Beijing, China) aged 5 weeks were used for the determination of anticancer activity. We obtained BALB/c mice from the Laboratory Animal Center, Academy of Military Medical Science. They were raised in compliance with the Guide for the Care and Use of Laboratory Animals. The weight of healthy BALB/c mice is 18–22 g.
We firstly injected HCC cells with 1 × 10^6 cells per mouse to determine the anticancer activity. After a week, the tumors increased to 80–120 mm^3. The mice were divided into four groups for 5c (3 mg/kg), 5c (5 mg/kg), the positive control amonafide (5 mg/kg), or the negative control physiological saline. We injected 5c or amonafide via the tail vein every day for a total of seven treatments. Body weight was determined every day. And then the mice were sacrificed after 7 days. The tumor tissues were weighed and the inhibition rate [((average tumor weight of negative control group – average tumor weight of the drug treated or positive control group)/average tumor weight of control group) × 100] was calculated. The organ index [(organ weight/body weight) × 100%] was also counted including heart, liver, kidney, lung, and spleen at the last day. Both 5c and amonafide were dissolved in glucose injection. And they were used immediately after preparation.
The highest FI levels in Snu-739 also indicate a significant therapy for HCC. Therefore, HCC animal models were used to test the in vivo antitumor activities. Mice bearing HCC xenografts were treated with 5c (3 mg/kg), 5c (5 mg/kg), the positive control amonafide (5 mg/kg), and normal saline (negative control) once every day for 7 days by tail vein (Figure 3).

Work on NCCCCNCCCCN1C(=O)c2cc(N)cc3cc(N)cc(c23)C1=O [7b] yielded an IC50 ([1]; SNU-739) of over 30 µM, an IC50 ([2]; Homo sapiens, MDA-MB-231) of over 30 µM and an IC50 ([3]; Homo sapiens, MCF7) of over 30 µM. For the same compound, the IC50 ([4]; Homo sapiens, A549) was over 30 µM, the IC50 [5] was over 30 µM and the IC50 [6] was 17.3 ± 1.78 µM.
Compound NCCCNCCCNCCCN1C(=O)c2cc(N)cc3cc(N)cc(c23)C1=O [11a] has an IC50 ([1]; SNU-739) of 9.69 ± 0.98 µM, an IC50 ([2]; Homo sapiens, MDA-MB-231) of 26 ± 2.56 µM and an IC50 ([3]; Homo sapiens, MCF7) of 14.8 ± 1.45 µM. The IC50 ([4]; Homo sapiens, A549) was 28.3 ± 2.85 µM, the IC50 [5] was over 50 µM and the IC50 [6] was 16.3 ± 1.69 µM.
NCCCNCCCCNCCCN1C(=O)c2cc(N)cc3cc(N)cc(c23)C1=O [11b] showed an IC50 ([1]; SNU-739) of 23.2 ± 2.36 µM, an IC50 ([2]; Homo sapiens, MDA-MB-231) of over 30 µM and an IC50 ([3]; Homo sapiens, MCF7) of 25.9 ± 2.56 µM. For the same compound, the IC50 ([4]; Homo sapiens, A549) was over 30 µM, the IC50 [5] was over 30 µM and the IC50 [6] was 15.8 ± 1.58 µM.
With CN(C)CCN1C(=O)c2cccc3cc(N)cc(c23)C1=O [Amonafide, amonafide, reference compound] the IC50 ([1]; SNU-739) was 13 ± 1.56 µM, the IC50 ([2]; Homo sapiens, MDA-MB-231) was 14.9 ± 1.75 µM and the IC50 ([3]; Homo sapiens, MCF7) was 5.89 ± 0.56 µM. The IC50 ([4]; Homo sapiens, A549) was 6.89 ± 0.68 µM, the IC50 [5] was 14 ± 1.78 µM and the “RF (resistance factor)” value [6] was 1.59. The IC50 [6] was 11 ± 1.02 µM, the “SI (selectivity index) IC50 in HL-7702/IC50 in Snu-368” value [7] was 0.83 and the “SI (selectivity index) IC50 in HL-7702/IC50 in Snu-739” value [7] was 0.89. For the same compound, the “SI (selectivity index), range over Snu-368 and Snu-739” value [7] was 0.83–0.89, the IC50 ([7]; Homo sapiens, L02) was 11.6 ± 1.36 µM and the “tumor suppression (inhibition rate, tumor weight)” value (HCC xenografts) was 53.27%.
Work on N.N.[Cl][Pt][Cl] [Cisplatin, cisplatin, reference compound] yielded an IC50 [1] of 10 ± 1.23 µM, an IC50 [2] of 16 ± 1.59 µM and an IC50 [3] of 9.6 ± 0.6 µM. The IC50 [4] was 11 ± 0.15 µM, the IC50 [5] was 16.4 ± 1.26 µM and the “RF (resistance factor)” value [6] was 3.67. For the same compound, the IC50 [6] was 40.4 ± 4.36 µM, the “SI (selectivity index) IC50 in HL-7702/IC50 in Snu-368” value [7] was 0.53 and the “SI (selectivity index) IC50 in HL-7702/IC50 in Snu-739” value [7] was 0.86. For the same compound, the “SI (selectivity index), range over Snu-368 and Snu-739” value [7] was 0.53–0.86 and the IC50 [7] was 8.6 ± 0.2 µM.
